Results taken from patent US20240360177A1, “PEPTIDES WITH ANTIMICROBIAL ACTIVITIES” (priority 2021, published 2024).
Converted amounts (≈) assume the structure as drawn. Read-outs that look alike come from different tables or passages of the source. Starred links: 1 amine or outer side, 2 acyl side, 3 side chain; linkers in the order of their positions; H or OH if unused. Non-standard residues stand in square brackets, D forms with d. Residues, ends and D or L forms follow the SMILES beside them. NH(CH2)9CO = O=C(CCCCCCCCCN[*:1])[*:2]; Aoc = NCCCCCCCC(=O)O; βAla = NCCC(=O)O

Legend:
C. albicans = details: 24 h
C. auris = details: 24 h
C. neoformans = details: 72 h
Fusarium spp. = details: 48 h
[1] = system: Microsporum gypseum ATCC 14683
[2] = system: Klebsiella pneumoniae ATCC 13883; type: cell-based
[3] = system: Pseudomonas aeruginosa ATCC 27853; type: cell-based
Coccidioides species = details: N = 3 strains; 48-72 hrs; >50% inhibition
[4] = Acute toxicity in CD-1 mice; details: both sexes, mouse, in vivo
Method: Acute toxicity and subacute toxicity of ACPs were tested in CD-1 mice. In the acute toxicity study, groups of CD-1 male or female mice were administered single intravenous or intraperitoneal escalating doses (n=2-3 per dose) of the peptides dissolved in normal saline for injection or in phosphate buffered saline. The intravenous dose was administered via tail vein with a slow push over 15-20 seconds. Doses were escalated based on tolerability.

[5] = system: Trichophyton rubrum ATCC MYA-4438
Paecilomyces variotii = details: 48 h
Scedosporium spp. = details: 72 h
[6] = system: Mycobacterium fortuitum ATCC 110; experiment: Antibacterial broth microdilution MIC, Mycobacterium fortuitum; type: cell-based; details: 48 hrs
C. glabrata = details: 24 h
[7] = system: Salmonella senftenberg CDC 127; type: cell-based
[8] = system: Escherichia coli ATCC 25922; type: cell-based
[9] = system: Mycobacterium smegmatis ATCC 700084; type: cell-based; details: ATCC 700084, 48 h
Rhizopus arrhizus = details: 24 h
C. parapsilosis = details: 24 h
[10] = system: Staphylococcus aureus ATCC 29213; type: cell-based
C. krusei = details: 24 h
[11] = system: Shigella sonnei MMX 10772; experiment: Antibacterial broth microdilution MIC, Shigella sonnei; type: cell-based; details: CAMHB
C. tropicalis = details: 24 h
[12] = system: Epidermophyton floccosum ATCC 52066
C. gattii = details: 72 h
C. dubliniensis = details: 24 h
in vitro [13] = details: human, EC50 cytotoxicity in HepG2, intracellular ATP assay
in vitro [14] = details: human, human serum, full strength
[15] = Plasma pharmacokinetics after single IV or IP dose in mice; type: in vivo, CD-1 mice
Method: The in vitro enzymatic and serum stability of the peptides is manifested by the in vivo plasma pharmacokinetic (PK) profile. A single 5 mg/kg intravenous injection (via tail vein) and a single 7.5 mg/kg intraperitoneal dose of SEQ ID NO: 7 were administered to 2 groups of CD-1 mice (n=3 per group). […] Serial blood samples were collected from the saphenous vein into EDTA-K2 as anti-coagulant at time points up to 4 hrs or 8 hrs after the intravenous or intraperitoneal doses. Plasma was separated and analyzed by an LC-MS/MS method as follows. Due to the small blood volume collected from each mouse, the plasma was pooled from 3 mice before analysis. A 50 μL of plasma was protein precipitated with a 100 μL solution of 300 ng/mL TAT peptide ([…]; SEQ ID NO: 99) as the internal standard in 5% trichloroacetic acid. After centrifugation, an aliquot of the supernatant was injected onto an HPLC column (Waters ACQUITY UPLC HSS T3, 2.1*50 mm, 1.8 μm) eluted with a gradient of mobile phase containing 0.1% perfluoropentanoic acid (PFPA) in water and 0.1% PFPA in acetonitrile. The peptide and the internal standard were detected using a Triple Quad 6500+ mass spectrometer operated with electro-spray ionization in the positive-ion SRM mode. The calibration curve range was from 10 to 4000 ng/mL. The mean plasma concentration of SEQ ID NO: 7 after the single intravenous and intraperitoneal doses are depicted in FIG. 2.
C0 or Cmax is concentration at time of injection for IV dose, or maximal concentration after IP dose; tmax is the time when C0 or Cmax was observed; t1/2 is plasma half-life; AUC is area under the plasma concentration vs. time curve; F is absolute bioavailability.

[16] = Subacute toxicity in CD-1 mice; type: in vivo; details: daily IP for 7 days
Method: In the subacute toxicity study, groups of CD-1 male or female mice were administered seven consecutive daily intraperitoneal doses (n=3 per dose) of the peptides (SEQ ID NO: 7, SEQ ID NO: 29, SEQ ID NO: 53) dissolved in normal saline for injection. Each peptide was evaluated at 2 to 3 dose levels ranging from 2.5 to 7.5 mg/kg/day. Mice were weighed at least once daily and observed at least twice daily for any abnormal findings and determination of overall health. At 24 hrs after the last dose, mice were humanely euthanized, with blood collected through cardiac puncture into K2EDTA microtainers to assess hematological parameters. All three peptides were tolerated at the highest dose evaluated (7.5 mg/kg/day) for 7 days.

Endoproteinase Arg-C = molecular target: T1, Endoproteinase Arg-C (Hathewaya histolytica, UniProt P09870); experiment: Endoproteinase Arg-C digestion stability; type: in vitro ADME; details: 37° C.
T1 construct: purchased Sigma Aldrich 11370529001

[17] = single IP dose, read-out: Tolerated single intraperitoneal dose
[18] = single IV dose via tail vein, read-out: Tolerated single intravenous dose
[19] = CD-1, mouse, IP 7.5 mg/kg, plasma
[20] = CD-1, mouse, IV 5 mg/kg, plasma

T1 sequence (P09870 51-181): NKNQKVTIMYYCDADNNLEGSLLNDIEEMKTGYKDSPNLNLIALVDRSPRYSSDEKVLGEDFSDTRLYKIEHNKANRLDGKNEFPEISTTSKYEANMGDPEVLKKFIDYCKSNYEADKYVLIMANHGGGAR
T1 sequence (P09870 191-526): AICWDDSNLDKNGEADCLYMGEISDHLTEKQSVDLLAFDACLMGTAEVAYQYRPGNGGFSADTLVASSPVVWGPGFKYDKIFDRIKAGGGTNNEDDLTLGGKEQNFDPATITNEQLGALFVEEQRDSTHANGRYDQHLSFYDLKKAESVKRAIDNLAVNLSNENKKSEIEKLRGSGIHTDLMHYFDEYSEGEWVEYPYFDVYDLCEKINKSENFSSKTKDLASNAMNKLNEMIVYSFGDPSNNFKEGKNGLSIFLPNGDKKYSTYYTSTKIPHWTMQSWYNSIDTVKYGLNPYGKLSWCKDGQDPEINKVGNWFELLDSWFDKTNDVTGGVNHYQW

Compound	MIC C. albicans (C. albicans)	MIC C. auris (C. auris)	MIC C. neoformans (C. neoformans)	MIC Range Fusarium spp. (Fusarium spp.)	MIC Range Coccidioides species (Coccidioides species)	MTD [4, 17]	MTD [4, 18]	MIC Range Paecilomyces variotii (Paecilomyces variotii)	MIC Range Scedosporium spp. (Scedosporium spp.)	MIC C. glabrata (C. glabrata)	MIC Range Rhizopus arrhizus (Rhizopus arrhizus)	MIC C. parapsilosis (C. parapsilosis)	MIC Range Lomentospora prolificans (Lomentospora prolificans)	MIC C. krusei (C. krusei)	MIC C. tropicalis (C. tropicalis)	MIC C. gattii (C. gattii)	MIC C. dubliniensis (C. dubliniensis)	EC50 (in vitro [13])	further results
N=C(N)NCCC[C@@H](N)C(=O)N[C@@H](CCCNC(=N)N)C(=O)N[C@H](CCCNC(=N)N)C(=O)NCCCCCCCCCC(=O)N[C@H](CCCNC(=N)N)C(=O)N[C@@H](CCCNC(=N)N)C(=O)N[C@H](CCCNC(=N)N)C(=O)NCCCCCCCC(=O)N[C@H](CCCNC(=N)N)C(=O)N[C@@H](CCCNC(=N)N)C(=O)N[C@H](CCCNC(=N)N)C(=O)N[C@@H](CCCNC(=N)N)C(=O)NCCCCCCCC(=O)N[C@H](CCCNC(=N)N)C(=O)N[C@@H](CCCNC(=N)N)C(=O)N[C@H](CCCNC(=N)N)C(=O)N[C@@H](CCCNC(=N)N)C(=O)O [SEQ ID NO: 32, rRr-(Ada)-rRr-(Aoa)-rRrR-(Aoa)-rRrR] (H-[dR]R[dR][NH(CH2)9CO][dR]R[dR][Aoc][dR]R[dR]R[Aoc][dR]R[dR]R-OH)	1 µg/mL (≈ 0.376 µM)	4 µg/mL (≈ 1.51 µM)	0.25 µg/mL (≈ 0.0941 µM)	0.25 to 1 µg/mL	0.25 to 0.5 µg/mL	10 to 15 mg/kg	5 to 7.5 mg/kg	0.25 µg/mL (≈ 0.0941 µM)	≤0.12 µg/mL	0.5 µg/mL (≈ 0.188 µM)	0.5 to 8 µg/mL	0.25 µg/mL (≈ 0.0941 µM)	0.25 µg/mL (≈ 0.0941 µM)	0.5 µg/mL (≈ 0.188 µM)	0.5 µg/mL (≈ 0.188 µM)	0.25 µg/mL (≈ 0.0941 µM)	1 µg/mL (≈ 0.376 µM)	> 300 µg/mL	MIC Microsporum gypseum [1]: >64 µg/mL; MIC Klebsiella pneumoniae [2]: 4 µg/mL (≈ 1.51 µM); MIC Pseudomonas aeruginosa [3]: 16 µg/mL (≈ 6.02 µM); MIC Trichophyton rubrum [5]: 8 µg/mL (≈ 3.01 µM); MIC Mycobacterium fortuitum [6]: 2 µg/mL (≈ 0.753 µM); MIC Salmonella senftenberg [7]: 4 µg/mL (≈ 1.51 µM); MIC Escherichia coli [8]: 2 µg/mL (≈ 0.753 µM); MIC Mycobacterium smegmatis [9]: 0.5 µg/mL (≈ 0.188 µM); MIC Staphylococcus aureus [10]: 8 µg/mL (≈ 3.01 µM); MIC Shigella sonnei [11]: 4 µg/mL (≈ 1.51 µM); MIC Epidermophyton floccosum [12]: 4 µg/mL (≈ 1.51 µM)
N=C(N)NCCC[C@@H](N)C(=O)N[C@@H](CCCNC(=N)N)C(=O)N[C@H](CCCNC(=N)N)C(=O)NCCC(=O)N[C@H](CCCNC(=N)N)C(=O)N[C@@H](CCCNC(=N)N)C(=O)N[C@H](CCCNC(=N)N)C(=O)NCCC(=O)N[C@H](CCCNC(=N)N)C(=O)N[C@@H](CCCNC(=N)N)C(=O)N[C@H](CCCNC(=N)N)C(=O)N[C@@H](CCCNC(=N)N)C(=O)NCCC(=O)N[C@H](CCCNC(=N)N)C(=O)N[C@@H](CCCNC(=N)N)C(=O)N[C@H](CCCNC(=N)N)C(=O)N[C@@H](CCCNC(=N)N)C(N)=O [SEQ ID NO: 7, rRr-(Apr)-rRr-(Apr)-rRrR-(Apr)-rRrR-NH2] (H-[dR]R[dR][βAla][dR]R[dR][βAla][dR]R[dR]R[βAla][dR]R[dR]R-NH2)	0.5 µg/mL (≈ 0.207 µM)	1 µg/mL (≈ 0.414 µM)	0.25 µg/mL (≈ 0.103 µM)	0.12 to 0.5 µg/mL	0.25 to 0.5 µg/mL	10 to 15 mg/kg	5 to 7.5 mg/kg	0.25 µg/mL (≈ 0.103 µM)	≤0.12 µg/mL	0.5 µg/mL (≈ 0.207 µM)	1 to 8 µg/mL	0.12 µg/mL (≈ 0.0497 µM)	≤0.12 µg/mL	0.5 µg/mL (≈ 0.207 µM)	0.25 µg/mL (≈ 0.103 µM)	0.25 µg/mL (≈ 0.103 µM)	0.25 µg/mL (≈ 0.103 µM)	> 300 µg/mL	remaining at 2 h, 5 μM (in vitro [14]): ~100%; AUC [15, 19]: 4740 ng·h/mL; Cmax [15, 19]: 1750 ng/mL; Tmax [15, 19]: 1 h; half-life [15, 19]: 1.69 h; AUC [15, 20]: 4420 ng·h/mL; C0 [15, 20]: 4480 ng/mL; Tmax [15, 20]: 0 h; half-life [15, 20]: 1.43 h; bioavailability ([15]; CD-1, mouse, plasma, IP 7.5 mg/kg, read-out: F (absolute bioavailability)): 74.8%; Tolerability of the PK doses ([15]; single 5 mg/kg IV and single 7.5 mg/kg IP): well tolerated; Tolerated dose (highest dose evaluated) [16]: 7.5 mg/kg/day; Clinical or hematological adverse effects ([16]; up to 7.5 mg/kg/day): No significant clinical or hematological adverse effects were observed; half-life at 427 μg/mL (Endoproteinase Arg-C; Endoproteinase Arg-C (isolated enzyme), read-out: Degradation half-life with Endoproteinase Arg-C (converted)): ~6 h; remaining at 6 h, 427 μg/mL (Endoproteinase Arg-C; Endoproteinase Arg-C, peptide 427 μg/mL, enzyme 3 μg/mL, 6 hrs, read-out: Percent peptide remaining after incubation with Endoproteinase Arg-C): 50.5%; MIC50 Candida species (Candida spp.): 0.5 µg/mL (≈ 0.207 µM); MIC90 Candida species (Candida spp.): 1 µg/mL (≈ 0.414 µM)
